System: muscarinic receptor
Assay: Test on salivary secretion in rat (oxotremorine-induced), compared with rhythmic bladder contraction test
Format: in vivo
Conditions: anesthetized Wistar rat; ID50 = 50% inhibition of saliva, ED30 = 30% inhibition of bladder contraction
Description: a. Test on Rhythmic Bladder Contraction in Rat
A female Wistar rat (130-200 g) is subjected to urethane anesthesia (1.0 g/kg s.c.), followed by ligation of the ureter on the kidney side. A urethral catheter is allowed to remain in the bladder, and about 1.0 mL of physiological saline is injected into the bladder through the catheter to cause rhythmic bladder contraction. Intravesical pressure is measured by a pressure transducer. After rhythmic contraction continues stable for at least 5 minutes, the test compound is cumulatively administered from the external jugular vein. Five to ten minutes later, the intravesical pressure is measured. An inhibition ratio of bladder contraction is determined compared with the bladder contraction before administration of the test compound and the dose of the test compound required for 30% inhibition of the bladder contraction before administration is designated as ED30.
b. Test on Salivary Secretion in Rat
A male Wistar rat (160-190 g) is subjected to anesthesia with urethane (0.8 g/kg i.p.), and the test compound is administered (to the control group: solvent). Fifteen minutes later, 0.8 μmol/kg of oxotremorine is administered. In each case, the drug is administered through the femoral artery. The saliva secreted for 5 minutes after the administration of oxotremorine is collected and weighed. […]

## CN1[C@@H]2CC[C@H]1C[C@@H](OC(=O)C(CO)c1ccccc1)C2 (stereo partly shown) [atropine]
  ID50 value (salivary secretion) relative to ED30 value (rhythmic bladder contraction): substantially the same

From patent US11179393B2, “Methods of treating or preventing preterm labor” (priority 2014, dated 2021)
